Experimental data published in the supplement of paper PMC10307832.

Assays:
Experiment in all cases: relative viability (nuclei count vs DMSO), 5 days (fraction); higher = more cells survive
Vismodegib + Pictilisib = compound: CS(=O)(=O)c1ccc(C(=O)Nc2ccc(Cl)c(-c3ccccn3)c2)c(Cl)c1 [Vismodegib] + CS(=O)(=O)N1CCN(Cc2cc3nc(-c4cccc5[nH]ncc45)nc(N4CCOCC4)c3s2)CC1 [Pictilisib] (partner 1 µM)
In short: (§1)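 Relative viability is defined as nuclei in treated wells over nuclei in vehicle wells. Duplicate plates were run and medians reported. Lung cancer cell lines in 1536-well plates were dosed by pin tool one day after seeding, with one drug or with a fixed anchor-drug dose plus five library-drug doses (not always all listed) in √10 steps, and nuclei were counted after 5 days.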

Ruxolitinib + Pictilisib = compound: N#CC[C@H](C1CCCC1)n1cc(-c2ncnc3[nH]ccc23)cn1 [Ruxolitinib] + CS(=O)(=O)N1CCN(Cc2cc3nc(-c4cccc5[nH]ncc45)nc(N4CCOCC4)c3s2)CC1 [Pictilisib] (partner 1 µM)
In short: as §1

VE-821 + Pictilisib = compound: CS(=O)(=O)c1ccc(-c2cnc(N)c(C(=O)Nc3ccccc3)n2)cc1 [VE-821] + CS(=O)(=O)N1CCN(Cc2cc3nc(-c4cccc5[nH]ncc45)nc(N4CCOCC4)c3s2)CC1 [Pictilisib] (partner 1 µM)
In short: as §1

VE-821 + Decitabine = compound: CS(=O)(=O)c1ccc(-c2cnc(N)c(C(=O)Nc3ccccc3)n2)cc1 [VE-821] + Nc1ncn([C@H]2C[C@H](O)[C@@H](CO)O2)c(=O)n1 [Decitabine] (partner 2 µM)
In short: as §1

| Cell Line | relative viability (Vismodegib + Pictilisib; first compound 0.08 µM) | relative viability (Vismodegib + Pictilisib; first compound 0.253 µM) | relative viability (Vismodegib + Pictilisib; first compound 0.8 µM) | relative viability (Vismodegib + Pictilisib; first compound 2.53 µM) | relative viability (Vismodegib + Pictilisib; first compound 8 µM) | relative viability (Ruxolitinib + Pictilisib; first compound 0.08 µM) | relative viability (Ruxolitinib + Pictilisib; first compound 0.253 µM) | relative viability (Ruxolitinib + Pictilisib; first compound 0.8 µM) | relative viability (Ruxolitinib + Pictilisib; first compound 2.53 µM) | relative viability (Ruxolitinib + Pictilisib; first compound 8 µM) | relative viability (VE-821 + Pictilisib; first compound 0.08 µM) | relative viability (VE-821 + Pictilisib; first compound 0.253 µM) | relative viability (VE-821 + Pictilisib; first compound 0.8 µM) | relative viability (VE-821 + Pictilisib; first compound 2.53 µM) | relative viability (VE-821 + Pictilisib; first compound 8 µM) | relative viability (VE-821 + Decitabine; first compound 0.08 µM) | relative viability (VE-821 + Decitabine; first compound 0.253 µM) | relative viability (VE-821 + Decitabine; first compound 0.8 µM) | relative viability (VE-821 + Decitabine; first compound 2.53 µM) | relative viability (VE-821 + Decitabine; first compound 8 µM) |
| --- | --- | --- | --- | --- | --- | --- | --- | --- | --- | --- | --- | --- | --- | --- | --- | --- | --- | --- | --- | --- |
| SK-MES-1 | 0.358 | 0.348 | 0.363 | 0.348 | 0.344 | 0.268 | 0.337 | 0.359 | 0.394 | 0.335 | 0.4 | 0.389 | 0.423 | 0.337 | 0.372 | 0.373 | 0.406 | 0.38 | 0.361 | 0.284 |
| HCC-827 | 1.22 | 1.06 | 0.834 | 0.854 | 0.97 | 0.654 | 0.973 | 0.919 | 0.906 | 0.944 | 1.1 | 1.03 | 1.19 | 1.24 | 1.19 | 0.347 | 0.344 | 0.357 | 0.352 | 0.357 |
| NCI-H596 | 0.385 | 0.404 | 0.391 | 0.391 | 0.397 | 0.379 | 0.339 | 0.387 | 0.418 | 0.386 | 0.416 | 0.4 | 0.431 | 0.431 | 0.385 | 1.08 | 1.08 | 1.04 | 1.12 | 1.09 |
| COR-L23 | 0.803 | 0.658 | 0.714 | 0.675 | 0.786 | 0.755 | 0.748 | 0.795 | 0.625 | 0.531 | 1.17 | 0.654 | 0.961 | 0.981 | 0.682 | 0.538 | 0.459 | 0.599 | 0.58 | 0.468 |
| 201T | 0.712 | 0.67 | 0.641 | 0.673 | 0.66 | 0.745 | 0.687 | 0.75 | 0.826 | 0.8 | 0.723 | 0.626 | 0.65 | 0.698 | 0.559 | 0.887 | 0.878 | 0.887 | 0.918 | 0.659 |
| NCI-H322M | 0.544 | 0.445 | 0.527 | 0.484 | 0.509 | 0.4 | 0.604 | 0.491 | 0.611 | 0.665 | 0.549 |  | 0.49 | 0.608 | 0.422 | 0.693 | 0.639 | 0.752 | 0.793 | 0.553 |
| LU99A | 0.319 | 0.39 | 0.256 | 0.313 | 0.324 | 0.321 | 0.315 | 0.401 | 0.339 | 0.316 | 0.362 | 0.311 | 0.29 | 0.319 | 0.253 | 1.01 | 0.763 | 0.881 | 0.801 | 0.395 |
| NCI-H2405 |  | 0.441 | 0.373 | 0.341 | 0.531 |  | 0.338 | 0.463 | 0.286 | 0.269 | 0.468 | 0.388 | 0.431 | 0.446 | 0.355 | 0.805 | 0.698 | 0.775 | 0.814 | 0.761 |
| LK-2 | 0.648 | 0.619 | 0.515 | 0.551 | 0.602 |  | 0.595 | 0.61 | 0.741 | 0.673 | 0.709 | 0.59 | 0.601 | 0.595 | 0.606 | 0.323 | 0.338 | 0.415 | 0.384 | 0.256 |
| HCC-366 | 0.16 | 0.17 | 0.148 | 0.137 | 0.131 | 0.154 | 0.134 | 0.161 | 0.094 | 0.101 | 0.152 | 0.252 | 0.0721 | 0.127 | 0.101 | 0.398 | 0.381 | 0.323 | 0.226 | 0.121 |
| NCI-H441 | 0.505 | 0.444 | 0.536 | 0.391 | 0.502 | 0.44 | 0.497 | 0.533 | 0.445 | 0.39 | 0.56 | 0.527 | 0.537 | 0.519 | 0.352 | 0.305 | 0.271 | 0.226 | 0.258 | 0.271 |
| COR-L 105 | 0.383 | 0.371 | 0.445 | 0.401 | 0.453 | 0.379 | 0.389 | 0.407 | 0.344 | 0.334 | 0.46 | 0.392 | 0.402 | 0.405 | 0.38 | 0.666 | 0.579 | 0.58 | 0.613 | 0.518 |
| A-427 | 0.757 | 0.701 | 0.635 | 0.694 | 0.634 | 0.742 | 0.749 | 0.773 | 0.371 | 0.629 | 0.763 | 0.538 | 0.54 | 0.684 | 0.389 | 0.592 | 0.53 | 0.587 | 0.572 | 0.442 |
| HCC-44 | 0.611 | 0.657 | 0.546 | 0.474 | 0.668 | 0.594 | 0.649 | 0.686 | 0.463 | 0.307 | 1.86 | 0.468 | 0.701 | 0.708 | 0.79 | 0.9 | 0.963 | 1.05 | 1.04 | 1.04 |
| NCI-H2170 | 0.301 | 0.286 | 0.306 | 0.347 | 0.325 | 0.36 | 0.28 | 0.418 | 0.303 | 0.253 | 0.319 | 0.289 | 0.332 | 0.4 | 0.293 | 0.515 | 0.469 | 0.487 | 0.434 | 0.295 |
| NCI-H2228 | 0.493 | 0.538 | 0.359 | 0.413 | 0.347 | 0.584 | 0.362 | 0.365 | 0.255 | 0.246 | 0.401 | 0.414 | 0.585 | 0.566 | 0.358 |  |  |  |  |  |
